Reference: ChEMBL document CHEMBL1201862, “PubChem BioAssay data set” (2004)
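Growth conditions: 96-well plates. Treatment: test compound, 48 hours, 5 concentrations. Analysis: linear interpolation between bracketing concentrations; unreached endpoints set to highest concentration. GI50: concentration for 50% inhibition of growth.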 Calls of active or inactive are those of the source. No stated cut-off is given here; in the data, active = GI50 up to about 1.1 µM and inactive = higher.

How the values were obtained:
Assay in all cases: inhibition of tumour cell growth, NCI panel, 48 h
[1] = tested on: SF-295
[2] = tested on: COLO 205
[3] = tested on: SK-MEL-5
[4] = tested on: EKVX
[5] = tested on: CCRF-CEM
[6] = tested on: HOP-92
[7] = tested on: MDA-MB-231
[8] = tested on: MCF7
[9] = tested on: OVCAR-3
[10] = tested on: SW-620
[11] = tested on: SN12C
[12] = tested on: NCI-H23
[13] = tested on: MOLT-4
[14] = tested on: UACC-62
[15] = tested on: MDA-MB-435
[16] = tested on: SNB-19
[17] = tested on: MDA-N
[18] = tested on: SK-MEL-2
[19] = tested on: SR
[20] = tested on: SK-OV-3

Structure (SMILES) | GI50 [1] | GI50 [2] | GI50 [3] | GI50 [4] | GI50 [5] | GI50 [6] | GI50 [7] | GI50 [8] | GI50 [9] | GI50 [10] | GI50 [11] | GI50 [12] | GI50 [13] | GI50 [14] | GI50 [15] | GI50 [16] | GI50 [17] | GI50 [18] | GI50 [19] | GI50 [20]
O=c1[nH]nc(-c2ccccc2)n1/N=C/c1ccc([N+](=O)[O-])cc1 | 27.2 µM (inactive) | > 100 µM (inactive) | > 100 µM (inactive) | > 80.4 µM (inactive) | > 100 µM (inactive) | 10 µM (inactive) | > 33.2 µM (inactive) | > 60.1 µM (inactive) | 19.7 µM (inactive) | > 100 µM (inactive) | > 62.1 µM (inactive) | > 53.2 µM (inactive) | > 100 µM (inactive) | > 53.8 µM (inactive) | > 100 µM (inactive) | 7.78 µM (inactive) | > 100 µM (inactive) | 19.1 µM (inactive) | > 100 µM (inactive) | 2.94 µM (inactive)
CCOC(=O)c1c(N=P(c2ccccc2)(c2ccccc2)c2ccccc2)nnc(-c2ccccc2)c1-c1ccccc1 | > 100 µM (inactive) | > 100 µM (inactive) | > 100 µM (inactive) | > 100 µM (inactive) | > 100 µM (inactive) | 5.52 µM (inactive) | > 100 µM (inactive) | > 100 µM (inactive) | > 100 µM (inactive) | > 100 µM (inactive) | > 100 µM (inactive) | > 100 µM (inactive) | > 100 µM (inactive) | > 100 µM (inactive) | > 100 µM (inactive) | 71.3 µM (inactive) | 92.5 µM (inactive) | 43.8 µM (inactive) | > 100 µM (inactive) | > 100 µM (inactive)
O=C(O)CNCc1c2ccccc2nc2ccccc12 | 48.4 µM (inactive) | 41 µM (inactive) | 25.7 µM (inactive) | 38.4 µM (inactive) | 7.24 µM (inactive) | 15.6 µM (inactive) | 43 µM (inactive) | 27.7 µM (inactive) | 38.6 µM (inactive) | 26.4 µM (inactive) | 44.4 µM (inactive) | 35.6 µM (inactive) | 6.27 µM (inactive) | 44.7 µM (inactive) | 36.6 µM (inactive) | 74 µM (inactive) | 32.4 µM (inactive) | 50.8 µM (inactive) | 7.33 µM (inactive) | > 76.4 µM (inactive)
COc1ccc(N(CN2C(=O)CCC2OC)C(C)=O)cc1 (stereo not given) | > 100 µM (inactive) | > 100 µM (inactive) | > 100 µM (inactive) | > 100 µM (inactive) | > 100 µM (inactive) | > 100 µM (inactive) | > 100 µM (inactive) | > 100 µM (inactive) | > 100 µM (inactive) | > 100 µM (inactive) | > 100 µM (inactive) | > 100 µM (inactive) | > 100 µM (inactive) | > 100 µM (inactive) | > 100 µM (inactive) | > 100 µM (inactive) | > 100 µM (inactive) | > 100 µM (inactive) | > 100 µM (inactive) | > 100 µM (inactive)
Cn1c2ccccc2c2[nH]c3ccccc3c(=O)c21 | > 100 µM (inactive) | > 100 µM (inactive) | 46.2 µM (inactive) | > 100 µM (inactive) | > 100 µM (inactive) | 65.5 µM (inactive) | > 100 µM (inactive) | > 100 µM (inactive) | > 100 µM (inactive) | 88.3 µM (inactive) | > 100 µM (inactive) | > 100 µM (inactive) | 50.6 µM (inactive) | > 100 µM (inactive) | > 100 µM (inactive) | 93.3 µM (inactive) | > 100 µM (inactive) | > 100 µM (inactive) | > 100 µM (inactive) | > 100 µM (inactive)
c1cc2nnc1SCCSCCSc1ccc(nn1)SCCSCCS2 | > 100 µM (inactive) | > 100 µM (inactive) | > 100 µM (inactive) | > 100 µM (inactive) | > 100 µM (inactive) | > 100 µM (inactive) | 40.6 µM (inactive) | > 100 µM (inactive) | > 100 µM (inactive) | > 100 µM (inactive) | > 100 µM (inactive) | > 100 µM (inactive) | > 100 µM (inactive) | > 100 µM (inactive) | > 100 µM (inactive) | > 100 µM (inactive) | > 100 µM (inactive) | > 100 µM (inactive) | > 100 µM (inactive) | > 100 µM (inactive)
Oc1ccccc1/C=N/N1C(=S)N(c2ccccc2)C(=N\c2ccccc2)/C1=N/c1ccccc1 | 8.39 µM (inactive) | 3.27 µM (inactive) | 18.2 µM (inactive) | 14.9 µM (inactive) | > 37 µM (inactive) | 4.57 µM (inactive) | 10 µM (inactive) | > 100 µM (inactive) | 15 µM (inactive) | 22.3 µM (inactive) | 12.4 µM (inactive) | 11.1 µM (inactive) | > 33.3 µM (inactive) | 13.9 µM (inactive) | 22.3 µM (inactive) | 6.47 µM (inactive) | 18.5 µM (inactive) | 17.7 µM (inactive) | 18.7 µM (inactive) | 13.9 µM (inactive)
COc1ccc(-c2c(CN3CCOCC3)sc3nc4ccccc4n23)cc1 | 9.08 µM (inactive) | 16.4 µM (inactive) | 6.43 µM (inactive) | 15.2 µM (inactive) | 0.0435 µM (active) | 23.1 µM (inactive) | 23 µM (inactive) | 8.32 µM (inactive) | 9.86 µM (inactive) | 12.2 µM (inactive) | 33.4 µM (inactive) | 27.4 µM (inactive) | 10.3 µM (inactive) | 16.7 µM (inactive) | 2.94 µM (inactive) | 11.5 µM (inactive) | 2.06 µM (inactive) | 30.5 µM (inactive) | 3.39 µM (inactive) | 21.6 µM (inactive)
